Assays:
hamsters = details: after STZ treatment; cited from earlier work
isolated pig islets = experiment: In vitro islet functionality (24 hr incubation at G5, G15, G15+Fsk; insulin/glucagon RIA); type: cell-based; details: for G15/G5 ratio of insulin secretion: native islets 1.16; for glucagon content, fold vs native islets: 50 mg/kg treated islets; for insulin secretion, fold vs 50 mg/kg treated islets / insulin secretion, fold vs native islets: islets from pigs treated with 30 mg/kg STZ; for glucagon secretion, fold in comparison to 0 mg/kg / glucagon secretion, fold in comparison to 30 mg/kg: islets from pigs treated with 50 mg/kg STZ
Protocol: The following steps were performed with the samples kept on ice. […] The samples were then sonicated 4×20 seconds (Sonifier B 12 [Branson Sonic Power Company, Danbury, Conn., USA]) and centrifugated 10 minutes at 4° C. at 1500 rpm. The first supernatant formed was removed and kept at −20° C. […] The samples were then kept at −20° C. overnight. After a step of centrifugation 10 minutes at 4° C. at 1500 rpm, the second supernatant was removed and kept at −20° C. […] The three supernatants were then pooled and constituted the pancreas extract. Human insulin specific RIA KIT and Glucagon RIA KIT (Millipore, Billerica, Mass., USA) were used for the determination of the hormonal content in human/pig pancreatic extractions as well as in isolated islets (see below). The content of insulin and glucagon in the extracts was performed following the instructions of the manufacturer. […] After incubation overnight at room temperature, 1 mL of precipitating reagent were added, followed by incubation 20 minutes at 4° C. The samples were then centrifuged 20 minutes at 2000-3000×g at 4° C.
Three replicates per concentration were performed. Media were thereafter recovered for insulin and glucagon quantification and islets were transferred in acid-ethanol for hormones extraction and quantification by radioimmuno-assay (see above).

pig pancreatic islets = experiment: Histomorphometry of pancreatic islets prior to isolation (alpha/beta cells) after STZ; type: in vivo
Protocol: Five doses (0, 30, 50, 75, 100 mg/kg) of filter-sterilized Streptozotocin (STZ) (Sigma, Bornem, Belgium) were tested. STZ was solubilised in citrate buffer (25% v/v Na citrate, 23% v/v citric acid, 52% v/v H2O, pH 4.5) and filtered before injection in the external jugular vein (Dufrane, Transplantation, 2006).
The cellular composition of islets was determined by immunohistochemistry in small samples of human and pig pancreas taken during dissection of the gland. After overnight fixation in formol at room temperature, the small biopsies were embedded in paraffin and cut in 5 μm sections. These sections were thereafter deparaffinized, rehydrated and washed with a solution of Tris-HCl-Buffered solution 0.05 mol/L (TBS, pH 7.4). After inactivation of endogenous peroxidase by a 30-minute incubation in 0.3% H2O2, the sections were incubated with 10% normal goat serum (NGS) in TBS for 30 minutes. The sections were then incubated overnight at 4° C. with glucagon rabbit polyclonal antibody (BD Bioscience, Erembodegem, Belgium) diluted at 1:100. After washes in TBS, the slides were incubated for 30 minutes with anti-rabbit-IgG (1:500) and these antibodies detected by EnVision anti-rabbit system (Dako A/S, Glostrup, Denmark) for 1 hour at room temperature. […] The glucagon staining was followed by the detection of the β-cells by alkaline phosphatase anti-alkaline phosphatase system (APAAP). After washing, aspecific sites were again inhibited by a 30 minutes incubation with 10% normal goat serum (NGS) in TBS. The slides were thereafter incubated overnight with mouse insulin monoclonal antibody (Abcam, Cambridge, UK) diluted at 1:800.
Islets from human and pig pancreas were compared for cellular proportion and geometric distribution of α and β cells (centre/periphery). Following the islets size, 3 groups of 5 islets (50-99, 100-149 and 150-200 μm) were compared in native/modified young pig versus human pancreas.
The number of small β-cell clusters (≦3 insulin-immunoreactive cells) in the total area of the slide was also assessed. The number of these clusters was manually counted through the entire slide. The area of the slide was measured with ImageJ 1.43i software after capture of pictures of slides with a camera Nikon Coolscan 5000, accessory FH-G1) and calibrated with a stage micrometer to correspond to the number of pixels evidenced on the image analyser.

pigs = experiment: Intravenous glucose tolerance test (IVGTT) in STZ-injected pigs; type: in vivo, pig
Protocol: […] STZ was solubilised in citrate buffer (25% v/v Na citrate, 23% v/v citric acid, 52% v/v H2O, pH 4.5) and filtered before injection in the external jugular vein (Dufrane, Transplantation, 2006).
Intravenous glucose tolerance tests (IVGTTs) were performed prior and 3 months after STZ injection under general anesthesia (induction by Zoletil (VIRBAC, Carros, France) IM at a dose of 6 mg/kg, maintained by intubation and inhalation of Enflurane (0-1.5%), nitrous oxide and oxygen. A catheter was introduced in the extern jugular vein and a solution of 0.5 g glucose/kg was injected. Blood samples were taken prior and 1, 3, 5, 10, 20, 30, 60, 90 minutes after complete injection of glucose. Glycaemia was measured on these samples (AccuChek, Roche, Brussels, Belgium) and serum was conserved for radioimmuno assay (RIA) quantifications (insulin, c-peptide).

monkeys = details: cited from earlier work
[1] = STZ 50 mg/kg, by linear regression
[2] = STZ 75 mg/kg, islets of 50-100 μm, prior to isolation

## CN(N=O)C(=O)N[C@H]1C(O)O[C@H](CO)[C@@H](O)[C@@H]1O (mixture of isomers) [STZ, Streptozotocin]
hamsters
  glucagon content: increased
Isolated pig islets; 30 mg/kg STZ
  stimulation index increase in comparison to native islets: 45%
Isolated pig islets; 30 mg/kg STZ-treated islets
  G15/G5 ratio of insulin secretion: 1.68
Isolated pig islets; 30 mg/kg STZ, G5 stimulation
  insulin content, times more than native islets: 3.3 times
Isolated pig islets; 30 mg/kg STZ, G15 stimulation
  insulin content, times more than native islets: 2.5 times
Isolated pig islets; 50 mg/kg STZ
  stimulation index increase in comparison to native islets: 28%
Isolated pig islets; 50 mg/kg STZ-treated islets
  G15/G5 ratio of insulin secretion: 1.49
Isolated pig islets; 50 mg/kg STZ, G5 stimulation
  insulin content, times higher than native islets: 1.5 times
  insulin secretion increase in comparison with native pig islets: 1.3 times
Isolated pig islets; 50 mg/kg STZ, G15 stimulation
  insulin content, times higher than native islets: 1.4 times
  insulin secretion increase in comparison with native pig islets: 1.4 times
Isolated pig islets; G5
  glucagon content, fold vs native islets: 7.9 ×
Isolated pig islets; G15 stimulation
  glucagon content, fold vs native islets: 10.4 ×
  insulin secretion, fold vs 50 mg/kg treated islets: 1.5 ×
  insulin secretion, fold vs native islets: 2.1 ×
  glucagon secretion, fold in comparison to 0 mg/kg: 3.0 ×
  glucagon secretion, fold in comparison to 30 mg/kg: 1.6 ×
Isolated pig islets; after 30-50 mg/kg STZ
  increase of the secretion of glucagon by isolated pig islets: 1.3 to 3.0 ×
Isolated pig islets; islet remodeling with low doses of STZ
  increase of insulin release: 1.29 to 2.13 ×
Isolated pig islets; islets from 30 mg/kg treated pigs, G5-G15 stimulations
  glucagon content, times higher than native islets: 4.4 times
Isolated pig islets; G5 stimulation
  insulin secretion, fold vs 50 mg/kg treated islets: 1.6 ×
  insulin secretion, fold vs native islets: 2.1 ×
  glucagon secretion, fold in comparison to 0 mg/kg: 2.5 ×
  glucagon secretion, fold in comparison to 30 mg/kg: 2.0 ×
Pig pancreatic islets; [1]
  theoretical increase in the proportion of α cells: 30%
  theoretical reduction of the proportion of β cells: 30%
Pig pancreatic islets; [2]
  number of alpha cells per islet in comparison to humans: higher number of alpha cells
  number of beta cells per islet in comparison to humans: lower number of beta cell
Pig pancreatic islets; STZ 100 mg/kg, islets of 50-100 μm, prior to isolation
  number of beta cells per islet in comparison to humans: lower number of beta cells
Pig pancreatic islets; STZ 30-50 mg/kg, islets of 50-100 μm and 150-200 μm, prior to isolation
  number of alpha cells per islet in comparison to humans: lower number of alpha cells per islet
Pig pancreatic islets; STZ 30-50 mg/kg, large islets (150-200 μm), prior to isolation
  alpha cell proportion in comparison to human islets: lower alpha cell proportion
Pig pancreatic islets; STZ 75-100 mg/kg, each islet size, prior to isolation
  proportion of alpha cells per islet in comparison to humans: higher proportion of alpha cells
Pig pancreatic islets; STZ-treated pig pancreas
  beta cell regeneration (from duct or exocrine tissue): No sign of beta cell regeneration
Pig pancreatic islets; from doses of 30 mg/kg STZ, prior to isolation
  number of α and β cells per islet: increased significantly
pigs; STZ 150 mg/kg
  AUC for IVGTT curves: significant higher AUC
pigs; STZ 30, 50, 75 and 100 mg/kg, single injection, IVGTT 3 months after, vs control animals
  glucose metabolism (IVGTT curves): not sufficient to induce dysfunction in glucose metabolism
pigs; STZ 30-50 mg/kg
  glucose uptake (IVGTT): did not affect glucose uptake
monkeys; after STZ treatment, monkeys
  number of α-cells: increased
monkeys; after long-term diabetes (>53 days), treated primates
  increase of glucagon mass: ~89%

Source: patent US20130336940A1, “MODIFIED PIG ISLETS FOR DIABETES TREATMENT” (UNIVERSITE CATHOLIQUE DE LOUVAIN, priority 2011, published 2013)
